Measurements: patent US20120148685A1, “METHODS AND COMPOSITIONS FOR TREATING INSULIN RESISTANCE, DIABETES MELLITUS TYPE 2, METABOLIC SYNDROME AND RELATED DISORDERS” (Engergy4Life AG, priority 2009, published 2012)
Marks after values point to notes of the source that are not given here.

Legend:
[1] = Feed intake, body weight development and feed conversion ratio of Zucker rats fed supplemented diets; type: in vivo
Text: Zucker rats are an established model of human early-onset, hyperplastic-hypertrophic obesity and insulin resistance as well as human non-insulin dependent diabetes mellitus.
(§1) A total of 60 male, 8-10 week old, obese (fa/fa) Zucker rats (Crl:ZUC-Leprfa; Charles River, France) with an initial body weight of 358±24 (mean±SD) g were randomly assigned to five groups of twelve rats each. In addition, 12 male, 8-10 week old, heterozygous lean (fa/+) Zucker rats with an initial body weight of 271±10 g were used as a lean control group. All rats were kept individually in Macrolon cages in a room maintained at 22±1° C. and 50-60% relative humidity with lighting from 06.00 to 18.00 hours. All experimental procedures described followed established guidelines for the care and handling of laboratory animals and were approved by the local Animal Care and Use Committee.
(§2) The rats were fed semi-purified diets which were composed according to the recommendations of the American Institute of Nutrition (AIN)-93G. Five different diets were used differing in their supplementation. […] Diets were prepared by mixing the dry components and subsequent pelleting with a standard pelleting device (Kahl Laborpressanlage Typ 14-175; Reinbek, Germany). Feed was administered ad libitum, and feed intake was recorded weekly. Experimental diets were fed for 4 weeks. Water was available ad libitum from nipple drinkers during the whole experiment.

[2] = Organ weights of the rats; type: in vivo; conditions: obese (fa/fa) Zucker rats, supplemented diet fed 4 wk, means ± SD (n = 12)
Procedure: (§3) All rats were kept individually in Macrolon cages in a room maintained at 22±1° C. and 50-60% relative humidity with lighting from 06.00 to 18.00 hours. All experimental procedures described followed established guidelines for the care and handling of laboratory animals and were approved by the local Animal Care and Use Committee.
(§4) Five different diets were used differing in their supplementation. […] Feed was administered ad libitum, and feed intake was recorded weekly. Experimental diets were fed for 4 weeks. Water was available ad libitum from nipple drinkers during the whole experiment.

[3] = Plasma and lipoprotein lipid concentrations (triacylglycerol, cholesterol; enzymatic kits); type: in vivo, Zucker rats; conditions: for Cholesterol, HDL / Cholesterol, Plasma / Cholesterol, VLDL + LDL / Triacylglycerols, Plasma / Triacylglycerols, VLDL + LDL: obese (fa/fa) Zucker rats, supplemented diet 4 wk, fasted, means ± SD (n = 12); for TAG concentration in plasma compared with the niacin+DHA+carnitine group / TAG concentrations in plasma compared with the control group / Cholesterol in the VLDL+LDL fraction compared with the obese control group / TAG concentration in the VLDL+LDL fraction compared with the obese control group: within the obese rats; for TAG concentration in plasma compared with the niacin+DHA+carnitine group / TAG concentrations in plasma compared with the control group: P<0.05; for Cholesterol in the VLDL+LDL fraction compared with the obese control group / TAG concentration in the VLDL+LDL fraction compared with the obese control group: P<0.05 where different
Procedure: as §1, §2
(§5) The rats were decapitated under CO2 anesthesia in the fasted state. Whole blood was collected into EDTA polyethylene tubes (Sarstedt, Nürnbrecht, Germany). Plasma was separated from whole blood by centrifugation (1,100×g; 10 min) at 4° C. Lipoproteins [VLDL, LDL and high-density lipoproteins (HDL)] were separated by step-wise ultracentrifugation (900,000×g, 1.5 h, 4° C.; Mikro-Ultrazentrifuge, Sorvall Products, Bad Homburg, Germany). All samples were stored at −20° C. pending analysis.
Triacylglycerol and cholesterol concentrations in plasma and lipoproteins were determined using enzymatic reagent kits from Biocon (Vöhl-Marienhagen, Germany).

[4] = Fasting glucose concentration in plasma; type: in vivo, Zucker rats; conditions: for Glucose in plasma: obese (fa/fa) Zucker rats, supplemented diet 4 wk, fasted, means ± SD (n = 12); for Fasting glucose concentration compared with the obese control group: within the obese rats, in words, P<0.05 where different
Procedure: as §1, §2, §5
Glucose concentration in plasma was determined by an enzymatic reagent kit from Analyticon Biotechnologies (Lichtenfels, Germany).

[5] = Non-esterified fatty acids (NEFA) in plasma; type: in vivo, Zucker rats; conditions: for NEFA in plasma: obese (fa/fa) Zucker rats, supplemented diet 4 wk, fasted, means ± SD (n = 12); for NEFA concentrations in plasma compared with the obese control group: within the obese rats, in words, P<0.05
Procedure: as §1, §2, §5
NEFA concentrations in plasma were determined using the NEFA kit from Wako Chemicals (Neuss, Germany).

leptin = assay: Leptin in plasma (rat ELISA); type: in vivo, Zucker rats; conditions: for Leptin in plasma: obese (fa/fa) Zucker rats, supplemented diet 4 wk, fasted, means ± SD (n = 12); for Leptin concentrations in plasma compared with the obese control group: within the obese rats, in words, P<0.05 where different
Procedure: as §1, §2, §5
(§6) Concentrations of leptin in plasma was determined by rat ELISA kits from BioVendor (Heidelberg, Germany). Concentration of high molecular weight adiponectin was determined by a rat ELISA kit from Shibayagi (Ishihara, Shibukawa, Gunma, Japan).

[6] = system: high molecular weight adiponectin; assay: High molecular weight adiponectin in plasma (rat ELISA); type: in vivo; conditions: obese (fa/fa) Zucker rats, supplemented diet 4 wk, fasted, means ± SD (n = 12)
Procedure: as §1, §2, §5, §6

[7] = system: sterol regulatory element-binding protein (SREBP)-1c; assay: Relative mRNA concentration in liver, lipogenesis: SREBP-1c; type: in vivo, Zucker rats
Procedure: as §3, §4

[8] = system: fatty acid synthase (FAS); assay: Relative mRNA concentration in liver, lipogenesis: FAS; type: in vivo, Zucker rats
Procedure: as §3, §4

[9] = system: stearoyl-CoA desaturase (SCD); assay: Relative mRNA concentration in liver, lipogenesis: SCD; type: in vivo; conditions: liver of obese Zucker rats, diet 4 wk, obese control = 1.00, means ± SD (n = 12)
Procedure: as §3, §4

[10] = system: fatty acid binding protein (FABP); assay: Relative mRNA concentration in liver, fatty acid uptake: FABP; type: in vivo, Zucker rats
Procedure: as §3, §4

[11] = system: fatty acid transport protein (FATP); assay: Relative mRNA concentration in liver, fatty acid uptake: FATP; type: in vivo; conditions: liver of obese Zucker rats, diet 4 wk, obese control = 1.00, means ± SD (n = 12)
Procedure: as §3, §4

scavenger receptor CD36 = assay: Relative mRNA concentration in liver, fatty acid uptake: CD36; type: in vivo; conditions: liver of obese Zucker rats, diet 4 wk, obese control = 1.00, means ± SD (n = 12)
Procedure: as §3, §4

lipoprotein lipase (LPL) = assay: Relative mRNA concentration in liver, fatty acid uptake: LPL; type: in vivo; conditions: liver of obese Zucker rats, diet 4 wk, obese control = 1.00, means ± SD (n = 12)
Procedure: as §3, §4

acyl-CoA oxidase (ACO) = assay: Relative mRNA concentration in liver, fatty acid oxidation: ACO; type: in vivo; conditions: liver of obese Zucker rats, diet 4 wk, obese control = 1.00, means ± SD (n = 12)
Procedure: as §3, §4

[12] = system: liver-type carnitine-palmitoyltransferase (L-CPT) I; assay: Relative mRNA concentration in liver, fatty acid oxidation: L-CPT I; type: in vivo; conditions: liver of obese Zucker rats, diet 4 wk, obese control = 1.00, means ± SD (n = 12)
Procedure: as §3, §4

[13] = obese (fa/fa) Zucker rats, supplemented diet fed 4 wk, means ± SD (n = 12)
[14] = within the obese rats, in words, P<0.05 where different
[15] = liver of obese Zucker rats, diet 4 wk, obese control = 1.00, means ± SD (n = 12)

## C[N+](C)(C)CC(O)CC(=O)[O-] (centres unmarked) [carnitine]
[1]; [13]
  Daily body weight gain: 4.85 ± 0.48 ^a g
  Feed conversion ratio: 5.18 ± 0.63 ^bc g/g
  Feed intake: 25.1 ± 3.4 ^b g/d
  Final body weight: 496 ± 31 ^a g
  Total body weight gain: 138 ± 13 ^a g
[1]; [14]
  Daily feed intake compared with the obese control group: did not differ
  Feed conversion ratio compared with the obese control group: did not differ much
[2]
  Absolute organ weights: Heart: 1.36 ± 0.12 g
  Absolute organ weights: Kidney: 2.75 ± 0.66 g
  Absolute organ weights: Liver: 25.0 ± 2.8 ^a g
  Relative organ weights: Heart: 2.73 ± 0.15 ^b mg/g body weight
  Relative organ weights: Kidney: 5.52 ± 1.17 mg/g body weight
  Relative organ weights: Liver: 50.4 ± 4.4 ^a mg/g body weight
[3]
  Cholesterol, HDL: 4.64 ± 0.50 ^a mmol/L
  Cholesterol, Plasma: 7.68 ± 0.92 ^ab mmol/L
  Cholesterol, VLDL + LDL: 3.12 ± 0.39 ^b mmol/L
  Triacylglycerols, Plasma: 4.41 ± 0.85 ^c mmol/L
  Triacylglycerols, VLDL + LDL: 2.65 ± 0.57 ^b mmol/L
[3]; in words
  TAG concentration in plasma compared with the niacin+DHA+carnitine group: lower
  TAG concentrations in plasma compared with the control group: lower
  Cholesterol in the VLDL+LDL fraction compared with the obese control group: did not differ
  TAG concentration in the VLDL+LDL fraction compared with the obese control group: did not differ
[4]
  Glucose in plasma: 7.86 ± 0.75 ^ab mmol/L
  Fasting glucose concentration compared with the obese control group: did not differ
[5]
  NEFA in plasma: 2.41 ± 0.57 ^b mmol/L
  NEFA concentrations in plasma compared with the obese control group: lower
leptin
  Leptin in plasma: 6.09 ± 1.29 ^bc ng/mL
  Leptin concentrations in plasma compared with the obese control group: did not differ
[6]
  Adiponectin in plasma: 122 ± 12 ng/mL
[7]; [15]
  Relative mRNA concentration, SREBP-1c: 0.78 ± 0.31 ^ab
[7]; [14]
  Relative mRNA concentration of SREBP-1c in the liver compared with the obese control group: did not differ
[8]; conclusions, liver of obese diabetic rats, in words
  Gene expression of fatty acid synthase: lowered
[8]; [15]
  Relative mRNA concentration, FAS: 0.53 ± 0.49 ^b
[8]; [14]
  Relative mRNA concentration of FAS in the liver compared with the obese control group: lower
[9]
  Relative mRNA concentration, SCD: 0.99 ± 0.33 ^a
[10]; in words, P<0.05 where different
  Relative mRNA concentration of FABP in the liver compared with the other groups: did not differ
[10]; [15]
  Relative mRNA concentration, FABP: 0.83 ± 0.29 ^ab
[11]
  Relative mRNA concentration, FATP: 0.93 ± 0.76
Scavenger receptor CD36
  Relative mRNA concentration, CD36: 0.87 ± 0.22 ^a
Lipoprotein lipase (LPL)
  Relative mRNA concentration, LPL: 1.04 ± 0.20
acyl-CoA oxidase (ACO)
  Relative mRNA concentration, ACO: 1.15 ± 0.37
[12]
  Relative mRNA concentration, L-CPT I: 1.15 ± 0.41

## O=C(O)c1cccnc1 [niacin, pyridine-3-carboxylic acid, reference compound]
[1]; [13]
  Daily body weight gain: 4.95 ± 0.73 ^a g
  Feed intake: 26.2 ± 2.3 ^ab g/d
  Final body weight: 500 ± 43 ^a g
  Total body weight gain: 141 ± 19 ^a g
[1]; [14]
  Daily feed intake compared with the obese control group: did not differ
[2]
  Absolute organ weights: Kidney: 2.57 ± 0.49 g
[3]; conclusions, obese diabetic rats, in words
  Lowering of cholesterol in plasma and VLDL/LDL: significant effect on lowering
[3]
  Cholesterol, HDL: 4.54 ± 0.54 ^a mmol/L
  Cholesterol, Plasma: 6.91 ± 1.13 ^b mmol/L
  Cholesterol, VLDL + LDL: 2.70 ± 0.27 ^c mmol/L
  Triacylglycerols, Plasma: 3.17 ± 0.40 ^d mmol/L
  Triacylglycerols, VLDL + LDL: 2.08 ± 0.40 ^c mmol/L
[3]; in words
  TAG concentration in plasma compared with the niacin+DHA+carnitine group: lower
  TAG concentrations in plasma compared with the control group: lower
  Cholesterol in the VLDL+LDL fraction compared with the obese control group: lower
  TAG concentration in the VLDL+LDL fraction compared with the obese control group: lower
[4]
  Glucose in plasma: 7.36 ± 0.64 ^b mmol/L
  Fasting glucose concentration compared with the obese control group: lower
[5]
  NEFA in plasma: 2.25 ± 0.46 ^b mmol/L
  NEFA concentrations in plasma compared with the obese control group: lower
leptin
  Leptin in plasma: 6.17 ± 0.71 ^b ng/mL
  Leptin concentrations in plasma compared with the obese control group: higher
[6]
  Adiponectin in plasma: 134 ± 21 ng/mL
